Assay results reported in patent US9879036B2, “Mitochondrial aldehyde dehydrogenase-2 binding compounds and methods of use thereof” (Aviv Therapeutics, Inc., priority 2014, dated 2018).
Entries after “also recorded” stand apart in the source; their conditions may differ.

Test system: FANCA deficiency lymphocyte cell line (FANCA B-lymphocyte, GM13022)
Experiment: Proliferation of FANCA deficient lymphocytes under 4 HNE challenge (alamarBlue)
Format: cell-based
Experimental: FANCA deficiency lymphocyte cell line (Fanconi Anemia, Complementation Group A, FANCA B-lymphocyte, GM13022) was purchased from Coriell Cell Repositories (403 Haddon Ave, Camden, N.J. 08103).
Standard cell culture conditions were used in this experiment. The culture medium (CM) consisted of culture medium RPMI1640, 15% heat-inactivated FBS, 2 mM L-glutamine, 1% Pen/Strep. Cells were suspended in 10-20 ml CM in T25 tissue culture flask in an upright position and incubated in a 37° C., 5% CO2 incubator. Cells were counted daily and diluted with fresh CM to 3×10^5 cells/ml. Cells thawed and maintained in culture for 3-12 days were used in these studies.
Cell densities of FANCA lymphocytes were determined and cells were diluted in RPMI1640 medium containing 15% FBS, 2 mM L-glutamine, 1% Pen/Strep to desired cell density. 4000 cells in 50-75 μl were plated onto each well in total 48 wells in columns 3-10 and rows B-G. This plating arrangement provided 6-replicates per column for each experimental condition. Plate was then centrifuged at 500 rpm for 2 min to ensure better distribution of cells across the well. For background medium controls, equal volume (50-75 μl) of dilution medium were added to wells B2, C2, D2.
For minimizing cells/medium drying in sample wells, 150 μl of 1×DPBS was added to each well of the 45 wells surrounding the sample and control wells. Plate was then incubated in a 37° C. 5% CO2 incubator for at least 4 hours before addition of new reagent.
Compounds were diluted from 20 mM stocks in DMSO with RPMI1640 medium containing 15% FBS. RPMI1640 medium containing 15% FBS and corresponding volume of DMSO was used as controls.
4 HNE (64 mM in 100% ethanol) was diluted to desired concentrations with RPMI1640 base medium.
AlamarBlue was added to each well to final 9.1 or 10% of the total volume in each well. Plate was further incubated in the 37° C. 5% CO2 incubator. The alamarBlue assay is designed to measure quantitatively the proliferation of human and animal cell lines in culture versus incubation time period.
Plate was removed from the CO2 incubator at a pre-designated time and placed in the microplate reader. The fluorescence level in each well was monitored at Ex 554 nm and Em 590 nm. Afterwards the numeric numbers/units were used for data analyses.
Fluorescence units in all wells were acquired by the microplate reader at each time point. Data were then exported to scientist's computer equipped with SoftMax ProS software. The average of Background units (Blk, 3×) and the average of each sample set (6 replicates) were determined. For data collected at each time point (cell culture incubation period), the average of Blk units were subtracted from the average of each set of the Sample units. These “net fluorescence unit” data were then presented in a plot consisted of different culture incubation time periods (the x-axis) versus the corresponding net fluorescence units (y-axis).
The “net fluorescence units” of each sample set were also compared to those of the “control” at each time point. “Control fluorescence units” were considered to be 100% at all the time points. Each set of “net fluorescence units” were divided by the “Control fluorescent units” and multiplied by 100 to obtain corresponding percentages. These “relative percentage” data were then presented in a plot consisted of time points (the x-axis) versus the corresponding relative percentages to control of 100 (y-axis).
The inhibitory effect of 4 HNE on the proliferation of FANCA lymphocytes was examined. 4000 cells in 75 μl of RPMI1640 medium containing 15% FBS were plated onto each sample well in a 96-well poly D-lysine coated black/clear cell culture plate and the plate was incubated in a 37° C. 5% CO2 incubator for 7 hours.
Stock of 4 HNE at 64 mM was diluted with RPMI1640 medium to 10 μM, 20 μM, 30 μM, 40 μM, 60 μM, 80 μM, and 120 μM. […]

COc1ccc(CNC(=O)c2cc(-c3ncccc3CO)ccc2OCC2CC2)cc1F [AC6]
duration of cell-protective / cell growth promoting effect in FANCA cells: at least 48 hours | relative cell proliferation versus control without AC compounds (3.5 μM 4 HNE, 5 μM and 10 μM AC6, 10 μM AC32, 25 hours to 48 hours after 4 HNE treatment): higher levels of cell growth than “control”; also recorded: more efficient growth than control | cell proliferation rate (10 μM AC6, 6 μM 4 HNE, between 25 and 48 hours after 4 HNE treatment): an increase in the cell proliferation rate | FANCA-deficiency lymphocyte cell growth versus 4 HNE only or 2 μM ALDH2 activators (10 μM compound, pretreatment 2 hours before 6 μM 4 HNE challenge): higher levels of cell growth | FANCA-deficiency lymphocyte cell growth versus 4 HNE only (pretreatment 2 hours before 3.5 μM 4 HNE challenge, 2 to 10 μM compound): higher levels of cell growth; also recorded: higher efficacy than AC32
